{"source": "patent US20060178342A1", "about": "“Hyaluronan as a cytotoxic agent, drug pre-sensitizer and chemo-sensitizer in the treatment of disease” (priority 2001, published 2006)", "key": {"[1]": {"tested_on": "human breast cancer cells", "test": "Breast cancer cell count assay, cell line not specified or pooled", "type": "cell-based", "settings": "HA incubated 30 min, 1 h, 24 h or 3 days", "method": "The cell suspensions were counted with an automated cell counter (ZM-2 Coulter Counter) by adding 15 mL saline+0.2 ml of cell suspension. • Cells were resuspended to a number of: […] The cell suspensions were counted with an automated cell counter (ZM-2 Coulter Counter) by adding 15 mL saline+0.2 ml of cell suspension. Results were expressed as % of no drug control which was calculated as: […]"}, "[2]": {"tested_on": "MDA-MB-468 human breast carcinoma xenografts", "test": "6-week efficacy study of HA ± 5-FU in nude mouse xenografts", "type": "in vivo", "method": "From the results in Example 2 the carcinoma cell line MDA-MB-468 was selected as the cancer cell inoculant for the generation of any nude mouse human tumour xenografts. Cells were routinely grown and subcultured as a previously described in Example 2. For injection into mice, cells were grown to 100% confluency, trypsinised in 0.025% trypsin/0.01% EDTA solution, washed twice by centrifugation in a Beckman TJ-6 bench centrifuge at 400 gav for 10 min, counted using a Model-ZM Coulter counter and resuspended in serum-free Leibovitz L-15 medium at 1×10^8 cells/ml. […]\nIndividual injections of 5-FU were prepared according to individual mouse masses, with the aim of delivering 30 mg/kg 5-FU in 50 μl (equivalent to human therapeutic dose of 10.5 mg/kg for a mean body weight of 60 kg; Inaba et al, 1988). […] With this quantity of HA injected into the body, saturation kinetics would be observed for the period of the experimentation (Fraser et al, 1983). […]\nAnimals were weighed and tumour volumes measured on the day of treatment application for long term study. In the 6-week study animals were weighed and tumour volumes measured on a daily basis. […]\nTumour volume was monitored on a daily or weekly basis by caliper measurements and tumour volume calculated as previously described."}, "[3]": {"tested_on": "Human LIM1215 colon cancer xenografts", "test": "14-week efficacy study, irinotecan ± HA in colon cancer xenografts", "type": "in vivo, mouse", "settings": "13.3, 26.6 or 150 mg/kg HA, IV bolus Day 1 of 14 × q7 D", "source_text": "Human LIM1215 colon cancer xenografts were inoculated into the mammary fat pad of athymic […] nude mice. Mice were randomly distributed into eight treatment groups (8 mice per group).\nThe treatment regime comprised of injections on Day 1 of a 7-day cycle for duration of fourteen weeks. Primary tumor volume, animal body mass, energy levels and food consumption were monitored three times weekly.\nAthymic CBA/WEHI nude female mice (Walter and Eliza Hall Research Institute, Melbourne, Australia), 6 to 8 weeks old, were maintained under specific pathogen-free conditions, with sterilized food and water available ad libitum. Each mouse received one injection containing 1×10^7 cells in 50-100 μl. […]\nAny animals with a tumor volume expressed as a percentage of body weight outside 0.25±0.10 (mean±1 SD) were excluded from data analysis. […]\nThe experimental end-point for each animal occurred either when the animal had to be euthanized due to a high degree of disease progression or when the 14-week study had been completed. The animals were monitored three times weekly and the following criteria were established to determine whether an animal had reached the experimental end point: tumour mass is greater than 10% of the animals total body mass; the animal is metabolically stressed (i.e. losing weight); or the animal is immobilized."}, "[4]": {"tested_on": "MDA-MB 468 Breast cancer xenografts", "test": "HA alone on breast cancer xenografts, metastasis, body mass and survival", "type": "in vivo", "settings": "12.5 mg/kg HA, three regimens; significant in 3/3 experiments", "method": "To determine the effect of HA on tumor volume in vivo, 12.5 mg/kg of HA was administered on day 1 and 2 of a 7 day cycle for 6 cycles and 12.5 mg/kg on day 1 and 3 of 7 day cycle for 6 cycles (FIG. 9A) or 12.5 mg/kg on day 1 and 8 of 28 day cycle for 6 cycles (FIG. 9B). […] This anti-proliferative effect could be due to the degradation of the HA into apoptotic-inducing fragments and/or the microembolisation effect, which could result in tissue hypoxia and subsequent cell death.\nThe following table sets forth the results of the administration of HA on breast and colon cancer xenographs, metastasis, body mass and survival in vivo."}}, "note": "“Also recorded” adds a separate entry of the source."}
{"substance": "hyaluronan [HA]", "values": [{"measurement": "reduction in breast cancer cell number", "setting": "[1]", "value": "0-29%"}, {"measurement": "non-lymphoid metastasis (new tumours near primary tumour)", "setting": "[2]; 6-week study", "value": "significant reduction in non-lymphoid metastasis"}, {"measurement": "tumour mass at the end of the 6 week study, compared with other groups", "setting": "[2]; iv 12.5 mg/kg HA and/or 30 mg/kg 5-FU, 6 x 7 day cycles", "value": "significantly decreased the primary tumour mass; also recorded: reducing the primary tumour mass in comparison to the saline control"}, {"measurement": "disease course with HA alone", "setting": "[3]", "value": "progressive disease"}, {"measurement": "% T/C versus saline", "setting": "[4]", "value": "lower % T/C"}]}
